# In PubChem BioAssay AID1645863 (Buhrlage Lab, Dana-Farber Cancer Institute and Novartis …, 2021):
# Calls of active or inactive are those of the source. No rule for the calls is given here.
# Biological target: Ubiquitin carboxyl-terminal hydrolase 10 (Homo sapiens) (UniProt Q14694)
# Assay: primary hit verification, biochemical, ubiquitin-specific protease 10 deubiquitylase inhibitors, concentration-effect titration (AID 1645863);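 also: potency values describe inhibition of USP10 cleavage of a fluorogenic ubiquitin substrate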
# Conditions: USP10 deubiquitinase enzymatic assay
# Chain of Ubiquitin carboxyl-terminal hydrolase 10 (Homo sapiens) (Q14694 whole entry, looked up): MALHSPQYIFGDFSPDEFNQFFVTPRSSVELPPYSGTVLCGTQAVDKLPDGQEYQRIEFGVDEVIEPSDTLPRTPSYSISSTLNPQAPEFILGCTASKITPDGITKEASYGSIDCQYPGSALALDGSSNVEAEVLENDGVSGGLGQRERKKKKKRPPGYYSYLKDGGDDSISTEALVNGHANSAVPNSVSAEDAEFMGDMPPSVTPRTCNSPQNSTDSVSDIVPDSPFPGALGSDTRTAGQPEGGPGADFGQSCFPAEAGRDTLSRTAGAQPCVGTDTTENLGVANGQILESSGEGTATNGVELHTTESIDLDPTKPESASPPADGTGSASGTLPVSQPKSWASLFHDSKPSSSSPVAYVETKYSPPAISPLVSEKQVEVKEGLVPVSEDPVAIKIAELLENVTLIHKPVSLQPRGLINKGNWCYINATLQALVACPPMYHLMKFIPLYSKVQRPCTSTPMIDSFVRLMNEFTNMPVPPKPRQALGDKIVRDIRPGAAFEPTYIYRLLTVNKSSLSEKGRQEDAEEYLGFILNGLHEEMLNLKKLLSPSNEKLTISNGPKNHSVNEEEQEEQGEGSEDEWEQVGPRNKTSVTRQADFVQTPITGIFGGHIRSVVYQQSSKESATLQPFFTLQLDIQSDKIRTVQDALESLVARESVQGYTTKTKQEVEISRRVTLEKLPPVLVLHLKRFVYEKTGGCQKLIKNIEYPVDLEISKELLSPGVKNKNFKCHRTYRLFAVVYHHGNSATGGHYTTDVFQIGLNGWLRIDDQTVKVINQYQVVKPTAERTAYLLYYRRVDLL
row,Compound,IC50
1,Cc1ccc2[nH]c3c(=O)n(Cc4ccc(N(C)C)cc4)cnc3c2c1,19.5 µM
2,Cc1ccc(-n2c(=O)[nH]c3c(C(N)=O)nc(-c4ccc(OCc5ccccc5)cc4)nc32)cc1,> 40 µM (inactive)
3,COc1ccc(Cl)cc1NC(=O)COC(=O)c1cc2ccccc2oc1=O,17.5 µM
4,CN1c2ccccc2C(=O)NC12CCN(C(=O)NCc1ccccc1)CC2,> 40 µM (inactive)
5,Cc1ccc(-c2cc(C(F)F)n3ncc(C(=O)Nc4ccc(O)cc4)c3n2)cc1,14.4 µM
6,Oc1cccc2nc3c(O)cccc3nc12,11.3 µM
7,O=C(/C=C/c1ccc(Br)cc1)Nc1cnc2ccccc2c1,39.5 µM
8,COc1ccc(OC)c(-c2cn3ccn(-c4ccc(F)c(Cl)c4)c(=O)c3n2)c1,18.7 µM
9,COc1cccc2c1NC(=O)C21CCN(C(=O)Nc2cccc3ccccc23)CC1,> 40 µM (inactive)
10,COc1ccccc1-c1nc(-c2cn(-c3ccc(F)cc3)nn2)no1,15.6 µM
11,Cc1ccc(Cn2cc(-c3noc(C(=O)Nc4cc(F)ccc4F)n3)nn2)cc1,26.8 µM
12,COc1ccc(Cn2c(=O)[nH]c3cc(C(=O)NCCCN4CCN(c5cccc(Cl)c5)CC4)ccc3c2=O)cc1,> 40 µM (inactive)
13,COc1cccc(C(=O)Nc2nc(-c3nnn(-c4ccc(C)c(F)c4)c3C)ns2)c1,> 40 µM (inactive)
14,CCOC(=O)N1CCC(NC(=O)c2cc(C(=O)Nc3ccc(S(=O)(=O)N4CCCCC4)cc3)ccc2CO)CC1,> 40 µM (inactive)
15,O=c1c2ccccc2oc2nc(-c3cccs3)n(-c3ccccc3)c(=O)c12,16.6 µM
16,Nc1ncc(-c2ccc(F)cc2)c(C2CCCN(C(=O)c3ccn[nH]3)C2)n1 (stereo not drawn),> 40 µM (inactive)
17,CC(Nc1nnc(Cc2ccccc2)c(=O)[nH]1)c1ccccc1 (stereo not drawn),> 40 µM (inactive)
18,O=C(NC1(O)C(=O)c2ccccc2C1=O)c1cccc2c1-c1ccccc1C2=O,10.3 µM
19,COc1ccc(/C=C/C(=O)Nc2ccc3nc(N4CCN(c5ncccn5)CC4)cc(C)c3c2)cc1,> 40 µM (inactive)

# Second part, the molecule after the results:
row,IC50,Compound
1,23.8 µM,CC(=O)N1CCc2cc(S(=O)(=O)NC(Cc3ccccc3)C(=O)Nc3cccc(Cl)c3C)ccc21 (stereo not drawn)
2,35.9 µM,CSCCC(NC(=O)c1ccccc1)c1nc2ccccc2n1CC(=O)Nc1ccccc1 (stereo not drawn)
3,6.1 µM,C[C@@H]1OC2=C(C(=O)c3cccc(O)c3C2=O)[C@H](O)[C@@H]1O
4,> 40 µM (inactive),CCCn1cc(C(=O)N2CCC3(CC2)CC2(CO3)Nc3ccccc3-n3cccc32)c(C)n1 (stereo not drawn)
5,> 40 µM (inactive),COC(=O)c1ccc(NC(=O)/C=C/c2ccc(F)cc2)cc1
6,29.5 µM,O=S(=O)(Nc1ccc(Oc2ncnc3cc(Cl)ccc23)nc1)c1ccc(S(=O)(=O)c2ccccc2)s1
7,> 40 µM (inactive),Cc1cc(=O)[nH]c(SCC(=O)c2cc(C)n(CCC3=CCCCC3)c2C)c1C#N
8,21 µM,Brc1ccc(Nc2nc(-c3ccccn3)nc3ccccc23)cc1
9,> 40 µM (inactive),COCCCn1c(C(=O)NCc2ccccc2)cc2c(=O)n3ccccc3nc21
10,11.5 µM,CC(NC(=O)c1ccccc1)c1nc2ccccc2n1CC(=O)Nc1ccc2c(c1)OCO2 (stereo not drawn)
11,24.4 µM,CCOc1ccc(NC(=O)Cn2c(=O)n(CCC(=O)NCc3ccco3)c(=O)c3ccccc32)cc1
12,16.4 µM,O=c1[nH]c(C2CCN(S(=O)(=O)c3ccc(S(=O)(=O)NC4CCCCC4)cc3)CC2)nc2c1nnn2Cc1c(F)cccc1Cl
13,> 40 µM (inactive),O=C(CCCCn1c(=O)[nH]c2ccccc2c1=O)Nc1cccc(Cl)c1
14,> 40 µM (inactive),O=C(Nc1ccc2snnc2c1)Nc1ccc(F)cc1F
15,> 40 µM (inactive),CCn1cc2c(n1)c(=O)n(Cc1ccccc1)c(=O)n2CC(=O)NCc1ccc(C)cc1
16,34.9 µM,O=C(Cn1c(=O)c2ccccc2c2ccccc21)Nc1ccc2c(c1)OCO2
17,> 40 µM (inactive),O=C(Nc1ccncc1)c1cn(Cc2ccccc2)cc2c(=O)n(-c3ccccc3)nc1-2
18,14 µM,COc1cc(-c2ccccc2)c(O)c(O)c1-c1ccccc1
19,> 40 µM (inactive),CN1CCC(N2CCN(C(=O)C3CCCN(c4cnc5nccnc5c4)C3)CC2)CC1 (stereo not drawn)
